PubChem BioAssay AID1963867 (Molecular Pharmacology Branch, DTP, NCI, 2024)
Several values for one entry are separate records, joined by “and”; a condition that tells them apart may be missing. Equal values may be shown once.

System: KRAS-mutant PDC tumor spheroid with HUVEC/MSC, viability
Assay: Anticancer human tumor 327498-153-R-J2-PDC patient-derived uterine carcinosarcoma cell line growth inhibition [KRAS2]
Conditions: for viability, T/C: stronger effect = lower value
From the text: Multicellular complex tumor spheroid response to RAS pathway inhibitors in combination with a targeted agents in patient-derived cell lines with oncogenic KRAS variants from multiple cancer types
A high-throughput screen of multi-cell type tumor spheroids was designed to identify active combinations of targeted small molecules and KRAS pathway inhibitors. Complex spheroids include a stromal component modeled by human endothelial cells (HUVEC) and fibroblasts modeled by human mesenchymal stem cells (MSCs). The concentration ranges selected for each drug and investigational agent were based upon clinically achievable concentrations if the clinical Cmax of the agent was known.
Compounds. The drugs and investigational agents: BI-3406 (NSC825286), BAY-293 (NSC824723), batoprotafib (TNO155; NSC825523), sotorasib (AMG 510; NSC818433), MRTX1257 (NSC819558), elimusertib (BAY 1895344; NSC800525), molibresib (GSK525762; NSC774829), temuterkib (LY3214996; NSC803410), venetoclax (NSC766270), alisertib (NSC759677), olaparib (NSC753686), talazoparib (NSC767125), erdafitinib (NSC781556), ipatasertib (NSC767898), cabozantinib (NSC761068), nintedanib (NSC756659), abemaciclib (NSC768073), docetaxel (NSC628503), trametinib (NSC758246), and sapanisertib (NSC764658) were obtained from the National Cancer Institute (NCI) Developmental Therapeutics Program Chemical Repository. The FDA-approved anticancer drug set is available from the Developmental Therapeutics Program. […] The stock solutions were prepared in dimethyl sulfoxide (DMSO, Sigma-Aldrich, St. Louis, MO, cat. D2650) at 800-fold the tested concentration and stored at -70 degrees C prior to their use. All drugs and investigational agents were tested over a range starting from a high concentration at or near the clinical Cmax and decreasing in half-log increments. If the clinical Cmax for an agent had not been determined, the highest concentration tested was 10 microM.
Cell Culture. All cells were maintained in an incubator at 37 degrees C and 5% CO2 with 95% humidity. The PDC lines were cultured according to standard operating procedures established by the NCI PDMR (https://pdmr.cancer.gov/sops/default.htm). Briefly, all PDCs were thawed and cultured in Matrigel-coated flasks prepared with a working solution of 1X Ham's F-12 nutrient mix, without supplementation (Invitrogen, Waltham, MA, cat. 11765054), 100 U/mL penicillin-streptomycin (Invitrogen, cat. 15140122), and 2.5% Matrigel (Corning Inc., Corning, NY, cat. 354248) for the first three passages. All PDCs were cultured in complete DMEM/F-12 media containing advanced DMEM/F-12 (Invitrogen, cat. 12634028), 4.9% defined fetal bovine serum, heat inactivated (HyClone Laboratories Inc., Logan, UT, cat. SH30070.03HI), 389 ng/mL hydrocortisone (Sigma-Aldrich, cat. H4001), 9.7 ng/mL human EGF recombinant protein (Invitrogen, cat. PHG0313), 23.4 microg/mL adenine (Sigma-Aldrich, cat. A2786), 97.3 U/mL penicillin-streptomycin (Invitrogen, cat. 15140122), 1.9 mM L-glutamine (Invitrogen, cat. 25030081), and 9.7 microM Y-27632 dihydrochloride (Tocris Bioscience, Bristol, United Kingdom, cat. 1254). The PDCs were cultured in complete DMEM/F12 media without 9.7 microM Y-27632 dihydrochloride for at least two passages prior to the screen. The established cell line HOP-62 was cultured in RPMI 1640 medium, HEPES (Invitrogen, cat. 22400105) with 10% defined fetal bovine serum (HyClone Laboratories Inc., cat. SH30070.03) and 2 mM L-glutamine (Invitrogen, cat. 25030081). The pooled donor HUVEC were cultured in endothelial cell growth medium 2 (PromoCell, Heidelberg, Germany, cat. C-22011) and the hMSC were cultured in mesenchymal stem cell growth medium 2 (PromoCell, cat. C-28009). For all experiments, HUVEC and hMSC were used at passages </=5, while the malignant cell lines were used at passages </=15. […]

[1] = curve of first compound, second compound 0.1 µM
[2] = curve of first compound, second compound 0.316 µM
[3] = curve of first compound, second compound 1 µM
[4] = curve of first compound, second compound 3.16 µM
[5] = curve of first compound, second compound 10 µM
[6] = second compound 0.1 µM, first compound 0.0316 µM
[7] = second compound 0.1 µM, first compound 0.1 µM
[8] = second compound 0.1 µM, first compound 0.316 µM
[9] = second compound 0.1 µM, first compound 1 µM
[10] = second compound 0.1 µM, first compound 3.16 µM
[11] = second compound 0.316 µM, first compound 0.0316 µM
[12] = second compound 0.316 µM, first compound 0.1 µM
[13] = second compound 0.316 µM, first compound 0.316 µM
[14] = second compound 0.316 µM, first compound 1 µM
[15] = second compound 0.316 µM, first compound 3.16 µM
[16] = second compound 1 µM, first compound 0.0316 µM
[17] = second compound 1 µM, first compound 0.1 µM
[18] = second compound 1 µM, first compound 0.316 µM
[19] = second compound 1 µM, first compound 1 µM
[20] = second compound 1 µM, first compound 3.16 µM
[21] = second compound 3.16 µM, first compound 0.0316 µM
[22] = second compound 3.16 µM, first compound 0.1 µM
[23] = second compound 3.16 µM, first compound 0.316 µM
[24] = second compound 3.16 µM, first compound 1 µM
[25] = second compound 3.16 µM, first compound 3.16 µM
[26] = second compound 10 µM, first compound 0.0316 µM
[27] = second compound 10 µM, first compound 0.1 µM
[28] = second compound 10 µM, first compound 0.316 µM
[29] = second compound 10 µM, first compound 1 µM
[30] = second compound 10 µM, first compound 3.16 µM
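Note: spheroids exposed to agents for seven days before reading.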
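Throughout, for viability, T/C: 100% = DMSO vehicle wells so lower means fewer viable cells.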

SMILES | IC50 [1] [nM] | IC50 [2] [nM] | IC50 [3] [nM] | IC50 [4] [nM] | IC50 [5] [nM] | viability, T/C [6] [%] | viability, T/C [7] [%] | viability, T/C [8] [%] | viability, T/C [9] [%] | viability, T/C [10] [%] | viability, T/C [11] [%] | viability, T/C [12] [%] | viability, T/C [13] [%] | viability, T/C [14] [%] | viability, T/C [15] [%] | viability, T/C [16] [%] | viability, T/C [17] [%] | viability, T/C [18] [%] | viability, T/C [19] [%] | viability, T/C [20] [%] | also measured
CC(C)NCC(C(=O)N1CCN(c2ncnc3c2C(C)CC3O)CC1)c1ccc(Cl)cc1 (configuration not stated) + CNCc1ccccc1-c1csc(C(C)Nc2nc(C)nc3cc(OC)c(OC)cc23)c1 | 216 | 147 | 115 | < 31.6 | < 31.6 | 77.9 | 55.6 | 45 | 34.7 | 26.4 | 63.6 | 55.1 | 40.9 | 27.5 | 22.1 | 66.3 | 52.5 | 36.1 | 24.6 | 18.2 | viability, T/C (second compound 0.1 µM, first compound 10 µM): 15%; viability, T/C (second compound 0.316 µM, first compound 10 µM): 14.6%; viability, T/C (second compound 1 µM, first compound 10 µM): 11.5%; viability, T/C [21]: 0.12%; viability, T/C [22]: 0.09%; viability, T/C [23]: 0.09%; viability, T/C [24]: 0.07%; viability, T/C [25]: 0.3%; viability, T/C (second compound 3.16 µM, first compound 10 µM): 0.16%; viability, T/C [26]: 0.23%; viability, T/C [27]: 0.44%; viability, T/C [28]: 0.16%; viability, T/C [29]: 0.16%; viability, T/C [30]: 0.16%; viability, T/C (second compound 10 µM, first compound 10 µM): 0.23%
CC1OCC2(CCN(c3cnc(Sc4ccnc(N)c4Cl)c(N)n3)CC2)C1N (configuration not stated) |  |  |  |  |  |  |  |  |  |  |  |  |  |  |  |  |  |  |  |  | viability, T/C (compound 0.0316 µM): 87.3% and 88.9% and 86.3%; viability, T/C (compound 0.1 µM): 75.4% [middle of 19 runs]; viability, T/C (compound 0.316 µM): 59.2% [middle of 19 runs]; viability, T/C (compound 10 µM): 31.2% [middle of 19 runs]; IC50 (compound alone, run of 07/19/2021): 544 nM [middle of 5 runs]; IC50 (compound alone, run of 07/26/2021): 499 nM [middle of 6 runs]; IC50 (curve of compound): 1.05 µM [middle of 5 runs]
CC1COCCN1c1cc(-c2ccnn2C)c2ccnc(-c3ccn[nH]3)c2n1 (configuration not stated) + C=CC(=O)N1CCN(c2nc(=O)n(-c3c(C)ccnc3C(C)C)c3nc(-c4c(O)cccc4F)c(F)cc23)C(C)C1 | 12.9 | < 10 | < 10 | < 10 | < 10 | 24.8 | 8.42 | 5.52 | 6.25 | 5.47 | 21.4 | 9 | 6.3 | 6.22 | 6.06 | 23.3 | 10.6 | 7.15 | 6.94 | 6.78 | viability, T/C (second compound 0.1 µM, first compound 0.01 µM): 57%; viability, T/C (second compound 0.316 µM, first compound 0.01 µM): 46.7%; viability, T/C (second compound 1 µM, first compound 0.01 µM): 40.1%; viability, T/C (second compound 3.16 µM, first compound 0.01 µM): 42.5%; viability, T/C [21]: 19.8%; viability, T/C [22]: 11.8%; viability, T/C [23]: 8.81%; viability, T/C [24]: 7.29%; viability, T/C [25]: 6.89%; viability, T/C (second compound 10 µM, first compound 0.01 µM): 28.5%; viability, T/C [26]: 14.4%; viability, T/C [27]: 11.9%; viability, T/C [28]: 9.29%; viability, T/C [29]: 8.01%; viability, T/C [30]: 6.76%
